Test results reported in US8927459B2, “Vegetation treatment” (Arctic, Inc., priority 2008, dated 2015).

Tests used:
crabgrass = assay: field-grown crabgrass treated with CO2 prototype with insulating cone, percent control; type: in vivo; details: for % control: insulated prototype, 0.15 lbs CO2
Description: (§1) Greenhouse-grown crabgrass plants were treated with the prototype containing either an 8002 flat fan nozzle (which was measured to release 2 pounds of CO2 per minute) or with an 8004 flat fan nozzle (which releases 4 pounds of CO2 per minute), to determine if the rate of application affects the percent control achieved. Control means killing or death of the plants as determined by visual observation. The percent control is a visual rating of the treated plant compared to an untreated control plant. In other words, it is the percent of plant death. Trials were conducted in triplicate.
(§2) Most commercial herbicides achieve 80% control or better. The prototype used 2 pounds of CO2 to achieve this level of control for one 6″ plant. At the 2 lb/plant dispensing rate, a commercial 25-lb cylinder of CO2 would only treat 10 plants; clearly efficiency increases were needed to create a viable backpack sprayer system. An insulating cone was attached around the nozzle with the expectation of possibly achieving a modest increase in efficiency, perhaps cutting the CO2 requirement by 20-50%.
Unexpectedly, a greater than ten-fold reduction in the CO2 usage was achieved (Table 1). The results are especially remarkable since field-grown plants (treated with the insulated design) are usually harder to kill than greenhouse-grown plants that were treated with the non-insulated design.

large crabgrass = assay: greenhouse-grown crabgrass treated with non-insulated CO2 prototype, visual percent control; type: in vivo; details: for % control: 2 lbs CO2; for percent control: 2-3 tiller greenhouse-grown, seven days after treatment (FIG. 2)
Description: as §1
Similarly, treatment for 15 seconds with the 2 lb/min nozzle results in 17 percent control with 0.5 pounds of CO2 dispensed, while treatment with the 4 lb/min nozzle for 5 seconds results in 12 percent control with 0.3 pounds of CO2 dispensed. From this study, it was concluded that for crabgrass, the total amount (dose) of CO2 applied correlates with % control. See FIG. 4, which graphs % control vs. CO2 dose with two different application rates.
In the data presented in FIG. 3, the crabgrass plants are larger. They are at the 3-4 tiller stage, whereas the plants in the data presented in FIG. 2 were 2-3 tiller plants. The CO2 application controlled both plant sizes well, and with the larger plants the same trend of percent control corresponding to the total pounds of CO2 applied was observed. In both cases the LD50 is over 1 pound CO2/plant.
as §2

For `O=C=O` [CO2, carbon dioxide], the “% control” value (crabgrass; 2-3 tiller field) was 80+ %, the “% control” value (crabgrass; 2-3 tiller field, listed as carbon dioxide) was ≥ 80% and the “% control” value (crabgrass; 3-4 tiller field) was 80+ %. For the same compound, the “% control” value (crabgrass; 3-4 tiller field, listed as carbon dioxide) was ≥ 80%, the “LD50 (lethal dose to 50% of plants)” value (crabgrass; with insulated cone) was “less than 0.2 lbs/CO2 per plant” and the “% control” value (large crabgrass; 2-3 tiller greenhouse, non-insulated prototype) was 75%. For the same compound, the LD50 (large crabgrass; 2-3 tiller plants, non-insulated prototype) was “over 1 pound CO2/plant”, the percent control (large crabgrass; 2 lb/min nozzle, 15 seconds, 0.5 pounds of CO2 dispensed) was 17% and the percent control (large crabgrass; 2 lb/min nozzle, 30 seconds, one pound of CO2 dispensed) was 40%. The “% control” value (large crabgrass; 3-4 tiller greenhouse, non-insulated prototype) was 87%, the LD50 (large crabgrass; 3-4 tiller plants, non-insulated prototype) was “over 1 pound CO2/plant” and the percent control (large crabgrass; 4 lb/min nozzle, 5 seconds, 0.3 pounds of CO2 dispensed) was 12%. For the same compound, the percent control (large crabgrass; 4 lb/min nozzle, 15 seconds, one pound of CO2 dispensed) was 42%, the “amount of CO2 used to achieve 80% control or better” value (large crabgrass; non-insulated prototype, one 6″ plant) was 2 pounds and the “LD50 (lethal dose to 50% of plants)” value (large crabgrass; without insulated cone) was 2 pounds of CO2 per plant.
